Test system: ALT or AST
Experiment: Example 5: postbaseline hepatic laboratory parameter values of clinical interest
Type: in vivo, human
Details: safety population; for Participants with Concurrent Elevations ALT or AST >=3 * ULN AND Bilirubin Total >=1.5 * ULN, n/N1 / Participants with Concurrent Elevations ALT or AST >=3 * ULN AND Bilirubin Total >=2 * ULN, n/N1 / Participants with Potential Hy's Law ALT or AST >=3 * ULN AND Bilirubin Total >=2 * ULN AND ALP <2 * ULN, n/N1: same day
Protocol: In a multicenter, randomized, double-blind, placebo-controlled, parallel-group study designed to evaluate the efficacy, safety, and tolerability of multiple doses and doses regimens of atogepant for the prevention of migraine. The patients were randomized (2:1:2:1:2:1) to 1 of 6 treatment groups: placebo, atogepant 10 mg QD, atogepant 30 mg QD, atogepant 30 mg BID, atogepant 60 mg QD, and atogepant 60 mg BID.
A total of 834 patients were randomized to double-blind treatment (ITT population), and 825 patients took at least 1 dose of double-blind IP (safety population). […] The primary efficacy variable was the change from baseline in mean monthly migraine/probable migraine headache days across the 12-week treatment period. The secondary efficacy variables were the change from baseline in mean monthly headache days across the 12-week treatment period, proportion of patients with at least a 50% reduction in mean monthly migraine/probable migraine headache days across the 12-week treatment period, and the change from baseline in mean monthly acute medication use days across the 12-week treatment period.

SMILES: C[C@@H]1[C@H](c2c(F)ccc(F)c2F)C[C@H](NC(=O)c2cnc3c(c2)C[C@@]2(C3)C(=O)Nc3ncccc32)C(=O)N1CC(F)(F)F [atogepant]
- Participants with postbaseline ALT or AST (U/L) >=1 * ULN, (%) (Atogepant 10 mg QD (N = 93)): (18.5) %
- Participants with postbaseline ALT or AST (U/L) >=1 * ULN, n/N1 (Atogepant 10 mg QD (N = 93)): 17/92
- Participants with postbaseline ALT or AST (U/L) >=1.5 * ULN, (%) (Atogepant 10 mg QD (N = 93)): (4.3) %
- Participants with postbaseline ALT or AST (U/L) >=1.5 * ULN, n/N1 (Atogepant 10 mg QD (N = 93)): 4/92
- Participants with postbaseline ALT or AST (U/L) >=2 * ULN, (%) (Atogepant 10 mg QD (N = 93)): (4.3) %
- Participants with postbaseline ALT or AST (U/L) >=2 * ULN, n/N1 (Atogepant 10 mg QD (N = 93)): 4/92
- Participants with postbaseline ALT or AST (U/L) >=3 * ULN, (%) (Atogepant 10 mg QD (N = 93)): (2.2) %
- Participants with postbaseline ALT or AST (U/L) >=3 * ULN, n/N1 (Atogepant 10 mg QD (N = 93)): 2/92
- Participants with postbaseline ALT or AST (U/L) >=5 * ULN, n/N1 (Atogepant 10 mg QD (N = 93)): 0
- Participants with postbaseline ALT or AST (U/L) >=10 * ULN, n/N1 (Atogepant 10 mg QD (N = 93)): 0
- Participants with postbaseline ALT or AST (U/L) >=20 * ULN, n/N1 (Atogepant 10 mg QD (N = 93)): 0
- Participants with Concurrent Elevations ALT or AST >=3 * ULN AND Bilirubin Total >=1.5 * ULN, n/N1 (Atogepant 10 mg QD (N = 93)): 0
- Participants with Concurrent Elevations ALT or AST >=3 * ULN AND Bilirubin Total >=2 * ULN, n/N1 (Atogepant 10 mg QD (N = 93)): 0
- Participants with Potential Hy's Law ALT or AST >=3 * ULN AND Bilirubin Total >=2 * ULN AND ALP <2 * ULN, n/N1 (Atogepant 10 mg QD (N = 93)): 0
- Participants with postbaseline ALT or AST (U/L) >=1 * ULN, (%) (Atogepant 30 mg BID (N = 86)): (13.1) %
- Participants with postbaseline ALT or AST (U/L) >=1 * ULN, n/N1 (Atogepant 30 mg BID (N = 86)): 11/84
- Participants with postbaseline ALT or AST (U/L) >=1.5 * ULN, (%) (Atogepant 30 mg BID (N = 86)): (2.4) %
- Participants with postbaseline ALT or AST (U/L) >=1.5 * ULN, n/N1 (Atogepant 30 mg BID (N = 86)): 2/84
- Participants with postbaseline ALT or AST (U/L) >=2 * ULN, (%) (Atogepant 30 mg BID (N = 86)): (2.4) %
- Participants with postbaseline ALT or AST (U/L) >=2 * ULN, n/N1 (Atogepant 30 mg BID (N = 86)): 2/84
- Participants with postbaseline ALT or AST (U/L) >=3 * ULN, (%) (Atogepant 30 mg BID (N = 86)): (1.2) %
- Participants with postbaseline ALT or AST (U/L) >=3 * ULN, n/N1 (Atogepant 30 mg BID (N = 86)): 1/84
- Participants with postbaseline ALT or AST (U/L) >=5 * ULN, n/N1 (Atogepant 30 mg BID (N = 86)): 0
- Participants with postbaseline ALT or AST (U/L) >=10 * ULN, n/N1 (Atogepant 30 mg BID (N = 86)): 0
- Participants with postbaseline ALT or AST (U/L) >=20 * ULN, n/N1 (Atogepant 30 mg BID (N = 86)): 0
- Participants with Concurrent Elevations ALT or AST >=3 * ULN AND Bilirubin Total >=1.5 * ULN, n/N1 (Atogepant 30 mg BID (N = 86)): 0
- Participants with Concurrent Elevations ALT or AST >=3 * ULN AND Bilirubin Total >=2 * ULN, n/N1 (Atogepant 30 mg BID (N = 86)): 0
- Participants with Potential Hy's Law ALT or AST >=3 * ULN AND Bilirubin Total >=2 * ULN AND ALP <2 * ULN, n/N1 (Atogepant 30 mg BID (N = 86)): 0
- Participants with postbaseline ALT or AST (U/L) >=1 * ULN, (%) (Atogepant 30 mg QD (N = 183)): (17.8) %
- Participants with postbaseline ALT or AST (U/L) >=1 * ULN, n/N1 (Atogepant 30 mg QD (N = 183)): 32/180
- Participants with postbaseline ALT or AST (U/L) >=1.5 * ULN, (%) (Atogepant 30 mg QD (N = 183)): (7.2) %
- Participants with postbaseline ALT or AST (U/L) >=1.5 * ULN, n/N1 (Atogepant 30 mg QD (N = 183)): 13/180
- Participants with postbaseline ALT or AST (U/L) >=2 * ULN, (%) (Atogepant 30 mg QD (N = 183)): (3.3) %
- Participants with postbaseline ALT or AST (U/L) >=2 * ULN, n/N1 (Atogepant 30 mg QD (N = 183)): 6/180
- Participants with postbaseline ALT or AST (U/L) >=3 * ULN, (%) (Atogepant 30 mg QD (N = 183)): (0.6) %
- Participants with postbaseline ALT or AST (U/L) >=3 * ULN, n/N1 (Atogepant 30 mg QD (N = 183)): 1/180
- Participants with postbaseline ALT or AST (U/L) >=5 * ULN, n/N1 (Atogepant 30 mg QD (N = 183)): 0
- Participants with postbaseline ALT or AST (U/L) >=10 * ULN, n/N1 (Atogepant 30 mg QD (N = 183)): 0
- Participants with postbaseline ALT or AST (U/L) >=20 * ULN, n/N1 (Atogepant 30 mg QD (N = 183)): 0
- Participants with Concurrent Elevations ALT or AST >=3 * ULN AND Bilirubin Total >=1.5 * ULN, n/N1 (Atogepant 30 mg QD (N = 183)): 0
- Participants with Concurrent Elevations ALT or AST >=3 * ULN AND Bilirubin Total >=2 * ULN, n/N1 (Atogepant 30 mg QD (N = 183)): 0
- Participants with Potential Hy's Law ALT or AST >=3 * ULN AND Bilirubin Total >=2 * ULN AND ALP <2 * ULN, n/N1 (Atogepant 30 mg QD (N = 183)): 0
- Participants with postbaseline ALT or AST (U/L) >=1 * ULN, (%) (Atogepant 60 mg BID (N = 91)): (10.2) %
- Participants with postbaseline ALT or AST (U/L) >=1 * ULN, n/N1 (Atogepant 60 mg BID (N = 91)): 9/88
- Participants with postbaseline ALT or AST (U/L) >=1.5 * ULN, (%) (Atogepant 60 mg BID (N = 91)): (1.1) %
- Participants with postbaseline ALT or AST (U/L) >=1.5 * ULN, n/N1 (Atogepant 60 mg BID (N = 91)): 1/88
- Participants with postbaseline ALT or AST (U/L) >=2 * ULN, (%) (Atogepant 60 mg BID (N = 91)): (1.1) %
- Participants with postbaseline ALT or AST (U/L) >=2 * ULN, n/N1 (Atogepant 60 mg BID (N = 91)): 1/88
- Participants with postbaseline ALT or AST (U/L) >=3 * ULN, (%) (Atogepant 60 mg BID (N = 91)): (1.1) %
- Participants with postbaseline ALT or AST (U/L) >=3 * ULN, n/N1 (Atogepant 60 mg BID (N = 91)): 1/88
- Participants with postbaseline ALT or AST (U/L) >=5 * ULN, n/N1 (Atogepant 60 mg BID (N = 91)): 0
- Participants with postbaseline ALT or AST (U/L) >=10 * ULN, n/N1 (Atogepant 60 mg BID (N = 91)): 0
- Participants with postbaseline ALT or AST (U/L) >=20 * ULN, n/N1 (Atogepant 60 mg BID (N = 91)): 0
- Participants with Concurrent Elevations ALT or AST >=3 * ULN AND Bilirubin Total >=1.5 * ULN, n/N1 (Atogepant 60 mg BID (N = 91)): 0
- Participants with Concurrent Elevations ALT or AST >=3 * ULN AND Bilirubin Total >=2 * ULN, n/N1 (Atogepant 60 mg BID (N = 91)): 0
- Participants with Potential Hy's Law ALT or AST >=3 * ULN AND Bilirubin Total >=2 * ULN AND ALP <2 * ULN, n/N1 (Atogepant 60 mg BID (N = 91)): 0
- Participants with postbaseline ALT or AST (U/L) >=1 * ULN, (%) (Atogepant 60 mg QD (N = 186)): (13.8) %
- Participants with postbaseline ALT or AST (U/L) >=1 * ULN, n/N1 (Atogepant 60 mg QD (N = 186)): 25/181
- Participants with postbaseline ALT or AST (U/L) >=1.5 * ULN, (%) (Atogepant 60 mg QD (N = 186)): (4.4) %
- Participants with postbaseline ALT or AST (U/L) >=1.5 * ULN, n/N1 (Atogepant 60 mg QD (N = 186)): 8/181
- Participants with postbaseline ALT or AST (U/L) >=2 * ULN, (%) (Atogepant 60 mg QD (N = 186)): (2.8) %
- Participants with postbaseline ALT or AST (U/L) >=2 * ULN, n/N1 (Atogepant 60 mg QD (N = 186)): 5/181
- Participants with postbaseline ALT or AST (U/L) >=3 * ULN, (%) (Atogepant 60 mg QD (N = 186)): (1.7) %
- Participants with postbaseline ALT or AST (U/L) >=3 * ULN, n/N1 (Atogepant 60 mg QD (N = 186)): 3/181
- Participants with postbaseline ALT or AST (U/L) >=5 * ULN, (%) (Atogepant 60 mg QD (N = 186)): (0.6) %
- Participants with postbaseline ALT or AST (U/L) >=5 * ULN, n/N1 (Atogepant 60 mg QD (N = 186)): 1/181
- Participants with postbaseline ALT or AST (U/L) >=10 * ULN, n/N1 (Atogepant 60 mg QD (N = 186)): 0
- Participants with postbaseline ALT or AST (U/L) >=20 * ULN, n/N1 (Atogepant 60 mg QD (N = 186)): 0
- Participants with Concurrent Elevations ALT or AST >=3 * ULN AND Bilirubin Total >=1.5 * ULN, n/N1 (Atogepant 60 mg QD (N = 186)): 0
- Participants with Concurrent Elevations ALT or AST >=3 * ULN AND Bilirubin Total >=2 * ULN, n/N1 (Atogepant 60 mg QD (N = 186)): 0
- Participants with Potential Hy's Law ALT or AST >=3 * ULN AND Bilirubin Total >=2 * ULN AND ALP <2 * ULN, n/N1 (Atogepant 60 mg QD (N = 186)): 0

Source: US12383545B1, “Treatment of migraine” (priority 2018, dated 2025)
